# Measured values: patent publication US9505710B2 (priority 2015, dated 2016)
# Target: BoNT/A LC1-429 (Clostridium botulinum, UniProt P0DPI1)
# Experiment: biochemical
# Conditions: BoNT/A Ki (nM)
# Chain of BoNT/A LC1-429 (P0DPI1 1-429, added parts left off): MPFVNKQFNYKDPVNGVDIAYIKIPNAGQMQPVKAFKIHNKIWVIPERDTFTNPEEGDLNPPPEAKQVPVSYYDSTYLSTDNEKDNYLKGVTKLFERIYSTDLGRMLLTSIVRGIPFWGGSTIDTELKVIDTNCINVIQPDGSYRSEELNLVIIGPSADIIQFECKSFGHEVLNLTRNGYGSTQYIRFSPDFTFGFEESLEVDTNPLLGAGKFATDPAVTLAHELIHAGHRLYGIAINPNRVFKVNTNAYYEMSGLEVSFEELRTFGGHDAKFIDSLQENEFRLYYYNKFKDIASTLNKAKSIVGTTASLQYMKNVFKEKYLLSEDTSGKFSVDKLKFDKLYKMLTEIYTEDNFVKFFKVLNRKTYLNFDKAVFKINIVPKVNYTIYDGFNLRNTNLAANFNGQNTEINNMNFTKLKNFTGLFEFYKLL
row,Structure (SMILES),Ki [nM]
1,"CO[C@H](CC(=O)NO)[C@H](Cc1ccc(F)cc1)c1ccc(Br)cc1 [Example 1-3, (3R,4R)-4-(4-bromophenyl)-5-(4-fluorophenyl)-N-hydroxy-3-methoxypentanamide]",9.36
2,"CCO[C@H](CC(=O)NO)[C@H](Cc1ccc(CO)cc1)c1ccc(F)cc1 [Example 1-9, (3R,4R)-3-ethoxy-4-(4-fluorophenyl)-N-hydroxy-5-(4-(hydroxymethyl)phenyl)pentanamide]",299
3,"CO[C@H](CC(=O)NO)[C@H](Cc1ccc(F)cc1C)c1ccc(Br)cc1 [Example 2-1, (3R,4R)-4-(4-bromophenyl)-5-(4-fluoro-2-methylphenyl)-N-hydroxy-3-methoxypentanamide]",235
4,"CO[C@H](CC(=O)NO)[C@H](Cc1ccc(F)c(C)c1)c1ccc(Br)cc1 [Example 2-2, (3R,4R)-4-(4-bromophenyl)-5-(4-fluoro-3-methylphenyl)-N-hydroxy-3-methoxypentanamide]",3.4
5,"CO[C@@H](CC(=O)NO)[C@H](Cc1ccc(F)cc1C)c1ccc(Br)cc1 [Example 2-3, (3S,4R)-4-(4-bromophenyl)-5-(4-fluoro-2-methylphenyl)-N-hydroxy-3-methoxypentanamide]",4860
6,"CO[C@@H](CC(=O)NO)[C@H](Cc1ccc(F)c(C)c1)c1ccc(Br)cc1 [Example 2-4, (3S,4R)-4-(4-bromophenyl)-5-(4-fluoro-3-methylphenyl)-N-hydroxy-3-methoxypentanamide]",145
7,"CCO[C@H](CC(=O)NO)[C@H](Cc1ccc(Cl)cc1)c1ccccc1 [Example 3-1, (3R,4R)-5-(4-chlorophenyl)-3-ethoxy-N-hydroxy-4-phenylpentanamide]",15.5
8,O=C(CC[C@H](Cc1ccc(Cl)cc1)c1ccccc1)NO [Example 3-2],2700
9,O=C(CC[C@H](Cc1ccc(Cl)cc1)c1ccc(Br)cc1)NO [Example 3-3],915
10,"CO[C@H](CC(=O)NO)[C@H](Cc1ccc(Cl)cc1)c1ccc(Cl)cc1 [Example 3-4, (3R,4R)-4,5-bis(4-chlorophenyl)-N-hydroxy-3-methoxypentanamide]",4.8
11,"CO[C@H](CC(=O)NO)[C@H](Cc1ccc(Cl)cc1)c1ccc(F)cc1 [Example 3-5, (3R,4R)-5-(4-chlorophenyl)-4-(4-fluorophenyl)-N-hydroxy-3-methoxypentanamide]",5.2
12,"CCO[C@H](CC(=O)NO)[C@H](Cc1ccc(Cl)cc1)c1ccc(Br)cc1 [Example 3-6, (3R,4R)-4-(4-bromophenyl)-5-(4-chlorophenyl)-3-ethoxy-N-hydroxypentanamide]",2 ± 0.42
13,"CCO[C@@H](CC(=O)NO)[C@H](Cc1ccc(Cl)cc1)c1ccc(Br)cc1 [Example 3-7, (3S,4R)-4-(4-bromophenyl)-5-(4-chlorophenyl)-3-ethoxy-N-hydroxypentanamide]",73
14,"CO[C@H](CC(=O)NO)[C@H](Cc1ccc(Cl)cc1)c1ccc(Br)cc1 [Example 3-8, (3R,4R)-4-(4-bromophenyl)-5-(4-chlorophenyl)-N-hydroxy-3-methoxypentanamide]",1.75
15,"C=Cc1ccc([C@@H](Cc2ccc(Cl)cc2)[C@@H](CC(=O)NO)OCC)cc1 [Example 3-9, (3R,4R)-5-(4-chlorophenyl)-3-ethoxy-N-hydroxy-4-(4-vinylphenyl)pentanamide]",3.2
16,"CCO[C@H](CC(=O)NO)[C@H](Cc1ccc(Cl)cc1)c1ccc(CO)cc1 [Example 3-10, (3R,4R)-5-(4-chlorophenyl)-3-ethoxy-N-hydroxy-4-(4-(hydroxymethyl)phenyl)pentanamide]",2.7
17,"CO[C@H](CC(=O)NO)[C@H](Cc1ccc(Cl)cc1)c1ccc(CO)cc1 [Example 3-11, (3R,4R)-5-(4-chlorophenyl)-N-hydroxy-4-(4-(hydroxymethyl)phenyl)-3-methoxypentanamide]",9.7
18,"CCO[C@H](CC(=O)NO)[C@H](Cc1ccc(Cl)cc1)c1ccc(C2(C)CO2)cc1 (stereo partly drawn) [Example 3-12, (3R,4R)-5-(4-chlorophenyl)-3-ethoxy-N-hydroxy-4-(4-(2-methyloxiran-2-yl)phenyl)pentanamide]",9.6
19,CCCCOCc1ccc([C@@H](Cc2ccc(Cl)cc2)[C@@H](CC(=O)NO)OC)cc1 [Example 3-13],24.9
20,CCO[C@H](CC(=O)NO)[C@H](Cc1ccc(Cl)cc1)c1ccc(COCOC)cc1 [Example 3-14],21.2
21,CCO[C@H](CC(=O)NO)[C@H](Cc1ccc(Cl)cc1)c1ccc(COCOCCOC)cc1 [Example 3-15],30

row,Structure (SMILES),Ki [nM]
1,"CCO[C@H](CC(=O)NO)[C@H](Cc1ccc(Cl)cc1)c1ccc(CN2CCOCC2)cc1 [Example 3-16, (3R,4R)-5-(4-chlorophenyl)-3-ethoxy-N-hydroxy-4-(4-(morpholinomethyl)phenyl) pentanamide]",10.1 ± 2.4
2,"CCO[C@H](CC(=O)NO)[C@H](Cc1ccc(Cl)cc1)c1ccc(CN2CCN(C(=O)OC(C)(C)C)CC2)cc1 [Example 3-17, tert-butyl 4-(4-((2R,3R)-1-(4-chlorophenyl)-3-ethoxy-5-(hydroxyamino)-5-oxopentan-2-yl)benzyl)piperazine-1-carboxylate]",8.5
3,"CCO[C@H](CC(=O)NO)[C@H](Cc1ccc(Cl)cc1)c1ccc(CN2CCNCC2)cc1 [Example 3-18, (3R,4R)-5-(4-chlorophenyl)-3-ethoxy-N-hydroxy-4-(4-(piperazin-1-ylmethyl)phenyl)pentanamide]",13.5 ± 2.8
4,"CCO[C@H](CC(=O)NO)[C@H](Cc1ccc(Cl)cc1)c1ccc(CN2CCCCC2)cc1 [Example 3-19, (3R,4R)-5-(4-chlorophenyl)-3-ethoxy-N-hydroxy-4-(4-(piperidin-1-ylmethyl)phenyl)pentanamide]",19.5
5,"CO[C@H](CC(=O)NO)[C@H](Cc1ccc(Cl)cc1)c1ccc(CN2CCCCC2)cc1 [Example 3-20, (3R,4R)-5-(4-chlorophenyl)-N-hydroxy-3-methoxy-4-(4-(piperidin-1-ylmethyl)phenyl)pentanamide]",37
6,"CCO[C@H](CC(=O)NO)[C@H](Cc1ccc(Cl)cc1)c1ccc(N(C)CCO)cc1 [Example 3-21, (3R,4R)-5-(4-chlorophenyl)-3-ethoxy-N-hydroxy-4-(4-((2-hydroxyethyl)(methyl)amino)phenyl)pentanamide]",8.5
7,"CCO[C@H](CC(=O)NO)[C@H](Cc1ccc(Cl)cc1)c1ccc(N2CCNCC2)cc1 [Example 3-22, (3R,4R)-5-(4-chlorophenyl)-3-ethoxy-N-hydroxy-4-(4-(piperazin-1-yl)phenyl)pentanamide]",13.5
8,"CCO[C@H](CC(=O)NO)[C@H](Cc1ccc(Cl)cc1)c1ccc(N2CCOCC2)cc1 [Example 3-23, (3R,4R)-5-(4-chlorophenyl)-3-ethoxy-N-hydroxy-4-(4-morpholinophenyl)pentanamide]",10
9,"CCO[C@H](CC(=O)NO)[C@H](Cc1ccc(Cl)cc1)c1ccc(-c2cccn2C(=O)OC(C)(C)C)cc1 [Example 3-24, tert-butyl 2-(4-((2R,3R)-1-(4-chlorophenyl)-3-ethoxy-5-(hydroxyamino)-5-oxopentan-2-yl)phenyl)-1H-pyrrole-1-carboxylate]",8.8
10,"CCO[C@H](CC(=O)NO)[C@H](Cc1ccc(Cl)cc1)c1ccc(-c2ccc[nH]2)cc1 [Example 3-25, (3R,4R)-4-(4-(1H-pyrrol-2-yl)phenyl)-5-(4-chlorophenyl)-3-ethoxy-N-hydroxypentanamide]",8
11,"CCO[C@H](CC(=O)NO)[C@H](Cc1ccc(Cl)cc1)c1ccc(-c2cncnc2)cc1 [Example 3-26, (3R,4R)-5-(4-chlorophenyl)-3-ethoxy-N-hydroxy-4-(4-(pyrimidin-5-yl)phenyl)pentanamide]",3.7
12,"CCO[C@H](CC(=O)NO)[C@H](Cc1ccc(Cl)cc1)c1ccc(-c2cnc(N(C)C)nc2)cc1 [Example 3-27, (3R,4R)-5-(4-chlorophenyl)-4-(4-(2-(dimethylamino)pyrimidin-5-yl)phenyl)-3-ethoxy-N-hydroxypentanamide]",5.3
13,"CCO[C@H](CC(=O)NO)[C@H](Cc1ccc(Cl)cc1)c1ccc(-c2c(C)nn(C)c2C)cc1 [Example 3-28, (3R,4R)-5-(4-chlorophenyl)-3-ethoxy-N-hydroxy-4-(4-(1,3,5-trimethyl-1H-pyrazol-4-yl)phenyl)pentanamide]",3.7
14,"CCO[C@H](CC(=O)NO)[C@H](Cc1ccc(Cl)cc1)c1ccc(-n2ccnc2)cc1 [Example 3-29, (3R,4R)-4-(4-(1H-imidazol-1-yl)phenyl)-5-(4-chlorophenyl)-3-ethoxy-N-hydroxypentanamide]",3.6
15,"CCO[C@H](CC(=O)NO)[C@H](Cc1ccc(Cl)cc1)c1ccc(-c2ccncc2)cc1 [Example 3-30, (3R,4R)-5-(4-chlorophenyl)-3-ethoxy-N-hydroxy-4-(4-(pyridin-4-yl)phenyl)pentanamide]",4.5
16,"CCO[C@H](CC(=O)NO)[C@H](Cc1ccc(Cl)cc1)c1ccc(C(=O)NO)cc1 [Example 4-1, 4-((2R,3R)-1-(4-chlorophenyl)-3-ethoxy-5-(hydroxyamino)-5-oxopentan-2-yl)-N-hydroxybenzamide]",10.5
17,"CCCN(CCC)C(=O)c1ccc([C@@H](Cc2ccc(Cl)cc2)[C@@H](CC(=O)NO)OCC)cc1 [Example 4-2, 4-((2R,3R)-1-(4-chlorophenyl)-3-ethoxy-5-(hydroxyamino)-5-oxopentan-2-yl)-N,N-dipropylbenzamide]",3.9
18,"CCO[C@H](CC(=O)NO)[C@H](Cc1ccc(Cl)cc1)c1ccc(C(=O)N2CCCCC2)cc1 [Example 4-3, (3R,4R)-5-(4-chlorophenyl)-3-ethoxy-N-hydroxy-4-(4-(piperidine-1-carbonyl)phenyl)pentanamide]",4.3 ± 2
19,"CCO[C@H](CC(=O)NO)[C@H](Cc1ccc(Cl)cc1)c1ccc(C(=O)N(C)CCO)cc1 [Example 4-4, 4-((2R,3R)-1-(4-chlorophenyl)-3-ethoxy-5-(hydroxyamino)-5-oxopentan-2-yl)-N-(2-hydroxyethyl)-N-methylbenzamide]",9.8 ± 3.7
20,"CCO[C@H](CC(=O)NO)[C@H](Cc1ccc(Cl)cc1)c1ccc(C(=O)N2CCOCC2)cc1 [Example 4-5, (3R,4R)-5-(4-chlorophenyl)-3-ethoxy-N-hydroxy-4-(4-(morpholine-4-carbonyl)phenyl)pentanamide]",5.8 ± 1.1
